Test results reported in article PMC5719359 (Scientific Reports, 2017).

Target: T1, tubulin (Sus scrofa, UniProt P02550+P02554)
T1 construct: purified porcine tubulin; with alpha-tubulin (alpha/beta heterodimer)
Test: fluorescence colchicine competition assay; the IC50 is from the in vitro tubulin polymerization assay
Assay type: biochemical

- IC50: 2060 nM
Compound: COc1cc(OC)cc(N2CCN(C(=O)c3n[nH]nc3-c3ccccc3Cl)CC2)c1 [7p]
